{"source": "patent US10195282B2", "about": "“Use of alginate formulation for intraincisional drug delivery” (UNIVERSITY OF SOUTHERN CALIFORNIA, priority 2014, dated 2019)", "test_system": "full thickness incision wounds in a rat model", "test": "Scar formation dose-response of NorLeu3-A(1-7) in 2.5% alginate crosslinked with 5 mM CaCl2 (Example 3)", "type": "in vivo, Sprague Dawley rats", "conditions": "1 mg/ml in the formulation; compared with surgical and vehicle controls; day 21", "experimental": "This example was designed to determine the formation and remodeling of scar by clinical and histological evaluations in full thickness incision wounds in a rat model. Various doses of active ingredient were delivered in 2.5% alginate crosslinked with 5 mM CaCl2. • Species: • Sprague Dawley • Female (n=5/group for histology; 3/group for tensile strength) • Parameters Measured: • Appearance of Healing Wound (Gross and Histological of Dense Collagen by Image J) • Tensile Strength • Central, Blinded Adjudication of Photos on Day 21 • Photographic serial imaging • Experimental Groups: Surgical control, vehicle (2.5% alginate crosslinked with 5 mM CaCl2) and 2.5% alginate crosslinked with 5 mM CaCl2 with 0.3, 1, 3 or 5 mg/ml DSC127) Methods\nAlginate was supplied by FMC BioPolymer. […]\nDuring the experimental period, Sprague Dawley rats, 200-225 grams, were housed one per cage and maintained in a central animal care facility with a 12-hour light/dark cycle. […] The six tests groups that were evaluated are: surgical control, vehicle control and 30, 100, 300 or 500 μg/wound of NorLeu3-A(1-7) in the vehicle. […] The animals were monitored for breathing, urination and movement during the postoperative interval. […] During the first two weeks after surgery, scabbing, dehiscence and inflammation were assessed. […]\nScabbing was assessed on a 4-point scale (0,1,2,3) for none, mild, moderate and severe, respectively. […]", "note": "Non-standard residues stand in square brackets, D forms with d. Residues, ends and D or L forms follow the SMILES beside them. Nle = CCCC[C@H](N)C(=O)O"}
{"smiles": "CCCC[C@H](NC(=O)[C@H](CCCNC(=N)N)NC(=O)[C@@H](N)CC(=O)O)C(=O)N[C@@H](Cc1ccc(O)cc1)C(=O)N[C@H](C(=O)N[C@@H](Cc1c[nH]cn1)C(=O)N1CCC[C@H]1C(=O)O)[C@@H](C)CC", "note": "[NorLeu3-A(1-7), Asp-Arg-Nle-Tyr-Ile-His-Pro] (H-DR[Nle]YIHP-OH; N-terminus and C-terminus assumed)", "values": [{"measurement": "Inflammation at the site of the incision scored on histological sections", "value": "trend towards reduced inflammation"}]}
